Source: publication PMC10144058, “New Hybrid Scaffolds Based on 5-FU/Curcumin: Synthesis, Cytotoxic, Antiproliferative and Pro-Apoptotic Effect” (Pharmaceutics, 2023)
Read-outs that look alike come from different tables or passages of the source.

Key:
Bel-7402/5-FU = system: Bel-7402/5-FU; design: method as in PMID 31080076; conditions: cited from earlier work
Bel7402 = system: Bel7402; design: method as in PMID 31080076; conditions: cited from earlier work
HL-60 cell line = system: HL-60 cell line; design: method as in PMID 33213229; conditions: cited from earlier work
K562 cell line = system: K562 cell line; design: method as in PMID 33213229; conditions: cited from earlier work
U937 cell line = system: U937 cell line; design: method as in PMID 33213229; conditions: cited from earlier work
[1] = system: HCEC non-malignant epithelial cells; design: method as in PMID 31097715; conditions: HCEC non-malignant corneal epithelial cells; cited from earlier work
HCT116 cells = system: HCT116 cells; design: method as in PMID 31097715; conditions: cited from earlier work
HaCaT cells = assay: Cell viability, sulforhodamine B (SRB) assay, non-malignant cells; type: cell-based; conditions: Homo sapiens
Method: (§1) SW480 (colon adenocarcinoma) and SW620 (derived metastatic) malignant cell lines, and the non-malignant lines HaCaT (human keratinocytes) and CHO-K1 (Chinese Hamster Ovary), were obtained from the European Collection of Authenticated Cell Cultures (ECACC, Porton Down, Salisbury, UK). The cells were maintained in Dulbecco’s Modified Eagle’s Medium (DMEM), supplemented with 10% equine serum previously inactivated at 56 °C, 1% penicillin/streptomycin, and 1% non-essential amino acids, and incubated at 37 °C in an atmosphere with 5% CO2. To carry out the experiments, the serum was diluted to 3% and additionally supplemented with […] insulin, […] transferrin, and 5 ng/mL selenium. Cells were used for experimentation when they reached 80–90% confluence, using a 1X trypsin enzymatic disintegration method. To avoid contamination by Mycoplasma spp., cell cultures were periodically analyzed by polymerase chain reaction (PCR).
(§2) Cell viability was evaluated with a sulforhodamine B (SRB) assay. This technique provides an index of protein contents in living and adherent cells, whose optical density can be related to cell concentration. Initially, 20,000 cells were seeded per well in 96-well culture plates. An initial adherence period of 24 h was performed at 37 °C, 5% CO2, and after this, the medium was replaced by another that contained the hybrid compounds in different concentrations. Then, the cells were left incubating for 24 and 48 h under the same conditions previously described. After the respective incubation times, the cells were fixed with trichloroacetic acid (50% v/v) for 1 h at 4 °C and stained with 0.4% (p/v) of SRB. Subsequently, washings with 1% acetic acid were carried out to eliminate possible nonspecific bindings, and after solubilization with 10 mM Tris-base, the absorbance was read at 492 nm in a microplate reader (Mindray MR-96A). All the experiments were carried out in triplicate.

SW480 cells [2] = assay: Cell cycle analysis (PI, flow cytometry); type: cell-based, human; conditions: SW480, treated with IC50 value, 48 h
Method: The method used for the recognition of cell cycle phases (G0/G1, S, G2/M) was based on staining with a fluorescent dye (propidium iodide—PI), as a direct relationship between fluorescence intensity and DNA content can be established. For this method, 250,000 cells/well were initially seeded in 6-well culture plates with an adherence period of 24 h at 37 °C in a 5% CO2 atmosphere. […] After treatment, cells were obtained by mechanical disaggregation, and the cell pellet was centrifuged and washed with a versene buffer. The cell pellet was fixed with 1.8 mL of cold 70% ethanol and kept at 4 °C overnight. Subsequently, two washes with a versene buffer were performed, and the pellet was resuspended in 300 µL of PBS containing 0.25 mg/mL of RNAsa and 0.1 mg/mL of PI. After a 30 min period of dark incubation, the fluorescence of 10,000 cells was analyzed using a FACS Canto II flow cytometer. The PI signal was analyzed with excitation at 488 nm using a sapphire laser, and fluorescence was detected at 610 nm. The data analysis was performed with FlowJo 10.8.1 software.

SW480 cells [3] = assay: Antiproliferative activity (SRB, 0-8 days); type: cell-based; conditions: Homo sapiens, read-out: Cell Viability (%) ± SE; for viability at 2.5 µM: SW480, 2.5 µM; for viability at 40 µM: SW480, 40 µM
Method: For this experiment, the same colorimetric method (SRB) from the evaluation of cell viability was used, although with some modifications. Initially, 2500 cells per well were seeded in 96-well culture plates, and a 24 h adherence period was performed at 37 °C in a 5% CO2 atmosphere. […] For this assay, incubation periods of 0, 2, 4, 6, and 8 days were used, and the fixation, staining, and reading conditions were the same as those previously described for the cytotoxicity assay.

SW480 cells [4] = assay: Cell viability, sulforhodamine B (SRB) assay; type: cell-based; conditions: Homo sapiens
Method: as §1, §2

SW480 cells [5] = assay: Mitochondrial membrane potential (DiOC6/PI, flow cytometry); type: cell-based, human; conditions: SW480, treated with IC50, 48 h
Method: The fluorescent dyes PI and DIOC6 (3,3’-dihexyloxacarbocyanine iodide) were used to observe the depolarization of the mitochondrial membrane as well as possible cell membrane damage. For this method, 250,000 cells/well were initially seeded in 6-well culture plates during a 24 h adherence period at 37 °C in a 5% CO2 atmosphere. […] After treatment, cells were obtained by mechanical disaggregation, stained with DiOC6 and PI, and incubated at room temperature for 30 min in the dark. Ten thousand events were analyzed by flow cytometry with excitation at 488 nm and emission detection with green (530/15 nm) and red (610/20 nm) filters.

CHO-K1 cells = assay: Cell viability, sulforhodamine B (SRB) assay, non-malignant cells; type: cell-based, Chinese Hamster; conditions: Cricetulus griseus
Method: as §1, §2

SW620 cells [6] = assay: Cell viability, sulforhodamine B (SRB) assay; type: cell-based, human; conditions: Homo sapiens
Method: as §1, §2

[7] = system: caspase 3, caspase 7, caspase 8 and p53 in SW480 cells; assay: Apoptotic biomarkers (ELISA); type: cell-based, human; conditions: SW480, treated with IC50, 48 h, vs control
Method: To provide an approach to the possible molecular mechanisms through which the hybrid compounds induce an effect on the cell lines, different proteins related to the process of death by apoptosis were determined. For this method, 1,000,000 cells were initially seeded per Petri dish, with an adherence period of 24 h at 37 °C in a 5% CO2 atmosphere. […] Later, the consumed medium was discarded, and after the addition of the versene buffer, the cells were obtained by mechanical disaggregation. The cells were then lysed with a cell lysis buffer and centrifuged to obtain the supernatant, which was used to determine the biomarkers of interest by enzyme-linked immunosorbent assays. These ELISA kits were provided by Elabscience Biotechnology Co., Houston, TX, USA [26].

normal 3T3 cells = system: normal 3T3 cells; design: method as in PMID 31080076; conditions: normal 3T3 cells (mouse embryonic fibroblast cell line); cited from earlier work
SW620 cells [8] = system: SW620 cells; design: method as in PMID 36297411; conditions: cited from earlier work
SW480 cells [9] = system: SW480 cells; design: method as in PMID 36297411; conditions: cited from earlier work
SW620 cell line = system: SW620 cell line; design: method as in PMID 34062841; conditions: cited from earlier work
[10] = system: SW480 human colon adenocarcinoma cells; design: method as in PMID 34062841; conditions: cited from earlier work
SMMC-7721 = system: SMMC-7721; design: method as in PMID 30025345; conditions: cited from earlier work
SGC-7901 = system: SGC-7901; design: method as in PMID 30025345; conditions: cited from earlier work
U87 = system: U87; design: method as in PMID 30025345; conditions: cited from earlier work
MGC-803 = system: MGC-803; design: method as in PMID 30025345; conditions: cited from earlier work
MM1S cells = system: MM1S cells; design: method as in PMID 23784627; conditions: cited from earlier work
RPMI8226 cells = system: RPMI8226 cells; design: method as in PMID 23784627; conditions: cited from earlier work
U266 cells = system: U266 cells; design: method as in PMID 23784627; conditions: cited from earlier work
COLO-205 cell line = system: COLO-205 cell line; design: method as in PMID 27060762; conditions: cited from earlier work
tubulin polymerization = system: tubulin polymerization; design: method as in PMID 27060762; conditions: in THP-1 tumor cells; read-out: IC50, inhibition of tubulin polymerization; cited from earlier work
HCT-116 cell line = system: HCT-116 cell line; design: method as in PMID 27060762; conditions: cited from earlier work
THP-1 cell line = system: THP-1 cell line; design: method as in PMID 27060762; conditions: cited from earlier work

Structure (SMILES): COc1cccc2c1C(=O)c1c(O)c3c(c(O)c1C2=O)C[C@@](O)(C(=O)CO)C[C@@H]3O[C@H]1C[C@H](N)[C@H](O)[C@H](C)O1 [Adriamycin]
- IC50 (Bel-7402/5-FU): 1.14 µM
- IC50 (Bel7402): 0.73 µM

Structure (SMILES): CC1(C)CCC(C)(C)c2cc(NC(=O)c3ccc(C(=O)OCn4cc(F)c(=O)[nH]c4=O)cc3)ccc21 [B]
- IC50 (HL-60 cell line): 9.87 µM
- IC50 (K562 cell line): 10.6 µM
- IC50 (U937 cell line): 8.21 µM

Structure (SMILES): CC1=C(CCC(=O)OCn2cc(F)c(=O)[nH]c2=O)C(=O)C(C(C)C)=CC1=O [C]
- IC50 [1]: 52 µM
- IC50 (HCT116 cells): 16 µM

Structure (SMILES): COc1cc(/C=C/C(=O)c2ccc(OCCn3cc(Cn4cc(F)c(=O)[nH]c4=O)nn3)cc2)ccc1O [Compound 6a, (E)-5-fluoro-1-((1-(2-(4-(3-(4-hydroxy-3-methoxyphenyl)acryloyl)phenoxy)ethyl)-1H-1,2,3-triazol-4-yl)methyl)pyrimidine-2,4(1H,3H)-dione]
- IC50 (HaCaT cells; 24 h): 71.8 ± 4.22 µM
- IC50 (HaCaT cells; 48 h): 27.9 ± 2.53 µM
- Cell cycle distribution, G0/G1 (SW480 cells [2]): 53.6%
- Cell cycle distribution, G2/M (SW480 cells [2]): 22.2%
- Cell cycle distribution, S Phase (SW480 cells [2]): 24.1%
- Cell cycle distribution, Sub G0/G1 (SW480 cells [2]): 0%
- viability at 2.5 µM (SW480 cells [3]; 48 h, 2 days after plating): 97.9 ± 1.55%
- viability at 40 µM (SW480 cells [3]; 48 h, 2 days after plating): 16.2 ± 2.51%
- viability at 2.5 µM (SW480 cells [3]; 96 h, 4 days after plating): 81.2 ± 2.8%
- viability at 40 µM (SW480 cells [3]; 96 h, 4 days after plating): 8 ± 1.81%
- viability at 2.5 µM (SW480 cells [3]; 144 h, 6 days after plating): 59.5 ± 3.45%
- viability at 40 µM (SW480 cells [3]; 144 h, 6 days after plating): 2.04 ± 0.35%
- viability at 2.5 µM (SW480 cells [3]; 192 h, 8 days after plating): 42.8 ± 1.3%
- viability at 40 µM (SW480 cells [3]; 192 h, 8 days after plating): 0%
- IC50 (SW480 cells [4]; SW480, 24 h): 75.3 ± 4.65 µM
- IC50 (SW480 cells [4]; SW480, 48 h): 17.4 ± 1.16 µM
- Dioc6 High population (live cells with high membrane polarization) (SW480 cells [5]): 84.9%
- Dioc6 Low population (cells that lose membrane polarization) (SW480 cells [5]): 0%
- PI+ population (membrane damage or dead cells) (SW480 cells [5]): 15%
- changes in the mitochondrial membrane potential (SW480 cells [5]): do not induce significant changes
- IC50 (CHO-K1 cells; CHO-K1, 24 h): 82.8 ± 6.43 µM
- IC50 (CHO-K1 cells; CHO-K1, 48 h): 73.7 ± 1.07 µM
- IC50 (SW620 cells [6]; SW-620, 24 h, 24 h): > 100 µM
- IC50 (SW620 cells [6]; SW-620, 48 h, 48 h): 45.1 ± 0.98 µM
- levels of biomarkers (caspase 3, caspase 7, caspase 8, p53) [7]: no significant differences

Structure (SMILES): C=C1C(=O)OC2C1CCC(COC(=O)Cn1cc(F)c(=O)n(Cc3ccc(C(F)(F)F)cc3)c1=O)=CCCC1(C)OC21 (stereo not drawn) [D]
- IC50 (normal 3T3 cells): 5.2 µM

Structure (SMILES): O=c1[nH]c(=O)n(Cc2cn(CCOc3cc(O)c4c(=O)c(-c5ccc(O)cc5)coc4c3)nn2)cc1F [E]
- IC50 (SW620 cells [8]): 50.6 ± 1.33 µM
- IC50 (SW480 cells [9]): 62.7 ± 7.26 µM

Structure (SMILES): COc1ccc(/C=C/c2ccc(C(=O)/C=C/c3ccc(O)c(OC)c3)cc2)c(OC)c1 [G]
- IC50 (SW620 cell line): 20.4 µM
- IC50 [10]: 29.2 µM

Structure (SMILES): COc1cc(OC)c2c(=O)c(OCCCOc3ccccc3/C=C/C(=O)/C=C/c3ccccn3)c(-c3cc(OC)c(OC)c(OC)c3)oc2c1 [H]
- IC50 (SMMC-7721): 3.18 µM
- IC50 (SGC-7901): 1.08 µM
- IC50 (U87): 3.93 µM
- IC50 (MGC-803): 0.56 µM

Structure (SMILES): COc1cc(/C=C/C(=O)C(=Cc2cccc3c2C(=O)N(C2CCC(=O)NC2=O)C3=O)C(=O)/C=C/c2ccc(O)c(OC)c2)ccc1O (stereo not drawn) [I]
- IC50 (MM1S cells): 6.44 µM
- IC50 (RPMI8226 cells): 4.55 µM
- IC50 (U266 cells): 3.96 µM

Structure (SMILES): COc1cc(/C=C/C(=O)/C=C/c2cc(OC)c(OC)c(OC)c2)ccc1OCc1cn(CCOc2cc(=O)oc3ccccc23)nn1 [J]
- IC50 (COLO-205 cell line): 4.68 µM
- IC50 (tubulin polymerization): 0.82 µM
- IC50 (HCT-116 cell line): 2.21 µM
- IC50 (THP-1 cell line): 0.82 µM
